Measurements: US20240383904A1, “HETEROCYCLIC COMPOUNDS” (Hoffmann-La Roche Inc., priority 2021, published 2024)

Biological target: T1, MAGL (Homo sapiens, UniProt Q99685)
T1 sequence (Q99685 1-303): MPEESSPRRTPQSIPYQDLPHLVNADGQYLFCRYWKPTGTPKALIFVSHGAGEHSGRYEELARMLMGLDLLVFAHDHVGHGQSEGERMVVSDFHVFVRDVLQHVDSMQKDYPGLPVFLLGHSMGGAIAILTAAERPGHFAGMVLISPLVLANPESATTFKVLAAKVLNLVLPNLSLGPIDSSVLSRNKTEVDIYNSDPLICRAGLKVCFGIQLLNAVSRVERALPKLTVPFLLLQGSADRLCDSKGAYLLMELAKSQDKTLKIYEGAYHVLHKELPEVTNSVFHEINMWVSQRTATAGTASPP
Test: 2-AG assay: MAGL inhibitory activity by hydrolysis of 2-arachidonoylglycerol to arachidonic acid, followed by mass spectrometry
Assay type: biochemical
Conditions: 15 min preincubation, 30 min reaction at RT, 8 μM 2-arachidonoylglycerol

O=C1NC2(CO1)CN(C(=O)N1CC3(CC(c4ccc(C(F)(F)F)cc4F)C3)C1)C2 [Example 107]
IC50: 0.08 nM

O=C1CCC2(CN(C(=O)N3CC4(CCN(Cc5ccc(C(F)(F)F)nn5)C4)C3)C2)N1 [Example 317, 2-[7-[[6-(trifluoromethyl)pyrida-zin-3-yl]methyl]-2,7-diazaspiro[3.4]octane-2-carbonyl]-2,5-diazaspiro[3.4]octan-6-one]
IC50: 1040 nM

O=C1NC2(CO1)CN(C(=O)N1CC3(C1)CN(c1cnc(C(F)(F)F)cn1)C3)C2 [Example 206, 2-[6-[5-(trifluoromethyl)pyrazin-2-yl]-2,6-diazaspiro[3.3]heptane-2-carbonyl]-7-oxa-2,5-diazaspiro[3.4]octan-6-one]
IC50: 278 nM

O=C1COCC2(CN(C(=O)N3CC4(CC[C@@H](Cc5ccc(S(=O)(=O)C(F)(F)F)cc5)C4)C3)C2)N1 [Example 234, 2-[(6S)-6-[[4-(trifluoromethylsulfonyl)phenyl]methyl]-2-azaspiro[3.4]octane-2-carbonyl]-8-oxa-2,5-diazaspiro[3.5]nonan-6-one]
IC50: 8.49 nM

N=S(=O)(c1cc(F)cc(CC2CC3(C2)CN(C(=O)N2CC4(CCC(=O)N4)C2)C3)c1)C(F)(F)F (centres unmarked) [Example 298, 2-[6-[[3-fluoro-5-(trifluoromethylsulfoni-midoyl)phenyl]methyl]-2-azaspiro[3.3]heptane-2-carbonyl]-2,5-diazaspiro[3.4]octan-6-one]
IC50: 0.83 nM

N#Cc1ccc(OC2CC3(C2)CN(C(=O)N2CC4(COCC(=O)N4)C2)C3)cc1C(F)(F)F [Example 302, 4-[[2-(6-oxo-8-oxa-2,5-diazaspiro[3.5]nonane-2-carbonyl)-2-azaspiro[3.3]heptan-6-yl]oxy]-2-(trifluoromethyl)benzoni-trile]
IC50: 68.8 nM

O=C1NC2(CCO1)CN(C(=O)N1CC3(CC(NS(=O)(=O)c4cccc(C(F)(F)F)c4)C3)C1)C2 [Example 52, N-[2-(6-keto-7-oxa-2,5-diazaspiro[3.5]nonane-2-carbonyl)-2-azaspiro[3.3]heptan-6-yl]-3-(trifluoromethyl)benzene-sulfonamide]
IC50: 742 nM

O=C1NC2(CO1)CN(C(=O)N1CC3(C1)CN(S(=O)(=O)c1ccc(F)cc1C(F)(F)F)C3)C2 [Example 195, 2-[2-[4-fluoro-2-(trifluoromethyl)phenyl]sulfonyl-2,6-diazaspiro[3.3]heptane-6-carbonyl]-7-oxa-2,5-diazaspiro[3.4]octan-6-one]
IC50: 2.51 nM

O=C1NC2(CO1)CN(C(=O)N1CC3(CC(NS(=O)(=O)c4cccc(C(F)(F)F)c4)C3)C1)C2 [Example 50, N-[2-(6-keto-7-oxa-2,5-diazaspiro[3.4]octane-2-carbonyl)-2-azaspiro[3.3]heptan-6-yl]-3-(trifluoromethyl)benzene-sulfonamide]
IC50: 0.78 nM

O=C1NC2(CO1)CN(C(=O)N1CC3(CN(Cc4ccc(S(=O)(=O)C(F)(F)F)cc4)C3)C1)C2 [Example 85, 2-[6-(4-triflylbenzyl)-2,6-diazaspiro[3.3]heptane-2-carbonyl]-7-oxa-2,5-diazaspiro[3.4]octan-6-one]
IC50: 0.94 nM

O=C1COCC2(CN(C(=O)N3CC4(CC(c5ccc(C(F)(F)F)cc5F)C4)C3)C2)N1 [Example 228]
IC50: 18.4 nM

O=C1COCC2(CN(C(=O)N3CC4(CN(Cc5ccc(S(=O)(=O)C(F)(F)F)cc5F)C4)C3)C2)N1 [Example 373, 2-[6-(2-fluoro-4-triflyl-benzyl)-2,6-diazaspiro[3.3]heptane-2-carbonyl]-8-oxa-2,5-diazaspiro[3.5]nonan-6-one]
IC50: 59.2 nM

O=C1COCC2(CN(C(=O)N3CC4(CC(Cc5cc(F)cc(S(=O)(=O)C(F)(F)F)c5)C4)C3)C2)N1 [Example 254, 2-[6-[[3-fluoro-5-(trifluoromethylsulfonyl)phenyl]methyl]-2-azaspiro[3.3]heptane-2-carbonyl]-8-oxa-2,5-diazaspiro[3.5]nonan-6-one]
IC50: 4.84 nM

O=C1NC2(CO1)CN(C(=O)N1CC3(CC(Cc4cncc(F)c4)C3)C1)C2 [Example 37, 2-[6-[(5-fluoro-3-pyridyl)methyl]-2-azaspiro[3.3]heptane-2-carbonyl]-7-oxa-2,5-diazaspiro[3.4]octan-6-one]
IC50: 1.91 nM

CS(=O)(=O)c1cc(F)ccc1CC1CC2(C1)CN(C(=O)N1CC3(CCC(=O)N3)C1)C2 [Example 41, 2-[6-(4-fluoro-2-mesyl-benzyl)-2-azaspiro[3.3]heptane-2-carbonyl]-2,5-diazaspiro[3.4]octan-6-one]
IC50: 5.52 nM

O=C1COCC2(CN(C(=O)N3CC4(CCN(Cc5ccc(S(=O)(=O)C(F)(F)F)cc5)C4)C3)C2)N1 [Example 233, 2-[7-[[4-(trifluoromethylsulfonyl)phenyl]methyl]-2,7-diazaspiro[3.4]octane-2-carbonyl]-8-oxa-2,5-diazaspiro[3.5]nonan-6-one]
IC50: 265 nM

O=C1NC2(CO1)CN(C(=O)N1CC3(C1)CN(S(=O)(=O)NCC1(C(F)(F)F)CC1)C3)C2 [Example 197, 6-(6-oxo-7-oxa-2,5-diazaspiro[3.4]octane-2-carbonyl)-N-[[1-(trifluoromethyl)cyclopro-pyl]methyl]-2,6-diazaspiro[3.3]heptane-2-sulfonamide]
IC50: 4.39 nM
